From US20250262215A1, “USE OF CYCLIN E1 STATUS AS A PREDICTIVE BIOMARKER FOR TREATING CANCER WITH WEE1 INHIBITORS” (Zeno Management, Inc., priority 2022, published 2025)

Assays:
[1] = system: CCNE1-amplified platinum-resistant ovarian cancer; design: key: CR: complete response; PR: partial response; SD: stable disease; PD: progressive disease; NE: not evaluable; NA: not available; conditions: one subject, before Azenosertib; cited from earlier work
[2] = system: A2780 non-CCNE1-amplified (CN = 2) (Cyclin E1-low); assay: Azenosertib and paclitaxel combination study, A2780 tumors; type: in vivo, mice; conditions: Azenosertib 60 mg/kg QD and/or paclitaxel 10 mg/kg, schedules of Table 2
Source text: (§1) To evaluate the effects of Azenosertib in combination with paclitaxel, mice were inoculated with A 2780 (non-CCNE1-amplified, CN=2) (FIGS. 10A and 10B) or OVCAR3 (CCNE1 amplified, CN=14) (FIG. 11A and FIG. 11B) cells. Animals were randomized and treated as summarized in Table 2 once the mean tumor volume reached a specified size.

[3] = system: OVCAR3 CCNE1-amplified (CN = 14) (Cyclin E1-high); assay: Azenosertib and paclitaxel combination study, OVCAR3 tumors; type: in vivo, mice; conditions: Azenosertib 60 mg/kg QD × 28 and/or paclitaxel 5 mg/kg 4 days on, 3 days off × 4 cycles
Source text: as §1

[4] = system: CCNE1-amplified platinum-resistant ovarian cancer; assay: Azenosertib in one heavily pre-treated subject (Example 10); type: in vivo, human; conditions: at least 400 mg once a day, 5 days on, two off days, for 11 months
Experimental: The subject was selected to have CCNE1-amplified status (confirmed by Foundation assay) and was administered Azenosertib in accordance with an intermittent dosing schedule of at least 400 mg Azenosertib once a day for five consecutive days, followed by two off days for 11 months. The subject is a person who received 10 prior lines of therapy: (1) Avelumab (SD); (2) Doxorubicin Liposomal (PD); (3) Topotecan/bevacizumab (PD); (4) Cyclophosphamide/bevacizumab (unk); (5) XMT1536 (NaPi2b ADC) (PR); (6) APG115 (MDM2 inh)/Pembrolizumab (SD); (7) ABBV-155 ([…] ADC) (PD); (8) NC 318 (Siglec-15 mA B) (SD); (9) SM 08502 (CLK inhibitor) (PD); (10) NBMBMX (HDAC8 inh) (SD).

[5] = system: SKOV3, OVCAR3 and HCC1806 tumors; assay: Tolerability in tumor-bearing mice dosed orally every day (Example 3); type: in vivo, NOD/SCID mice or BALB/c nude mice
Experimental: NOD/SCID mice (SKOV3-Cyclin E1-low and OVCAR3-Cyclin E1-high) or BALB/c nude mice (HCC1806) bearing corresponding tumors were dosed orally every day for the time as shown in FIGS. 5A and 8A. Treatment was well-tolerated and the change in tumor volume was plotted against time of administration. Target engagement of Azenosertib (decreased pCDK1) and γH2AX were examined by IHC in tumors after 12 hrs of Azenosertib treatment in SKOV3-Cyclin E1-low and OVCAR3-Cyclin E1-high cells. Y-axis represents the sum of H-score evaluated by 3 independent pathologists (FIGS. 4B and 4C). Replication stress markers pCHK1 and γH2AX were determined by Western Blot in OVCAR3 tumor samples with or without Azenosertib treatment for 12 hrs (FIG. 4D).

HGSOC cells = assay: Growth rate inhibition (GR) by CellTiter-Glo and GR calculator; type: cell-based; conditions: for effect on growth rate (GR): relative to untreated control
Source text: To confirm whether Cyclin E1 expression levels were responsible for increased sensitivity to Azenosertib, OV90, Kuramochi and COV362 cells (low endogenous expression levels of Cyclin E1) were transduced with a lentiviral vector carrying the CCNE1 gene or with an empty vector control. Stable OV90, Kuramochi and COV362 cell lines were established by puromycin selection. Cyclin E1 overexpression in the stable OV90 cell line compared to empty vector control cells was confirmed by Western blotting (FIG. 1C). […] Sensitization of HGSOC cell lines by overexpression of Cyclin E1 to Azenosertib was assessed by plotting the growth-rate (GR) inhibition in FIG. 1D. It was observed that Cyclin E1 overexpression sensitized HGSOC cell lines to Azenosertib by further decreasing growth rate and cell viability compared to control empty vector cell lines (FIG. 1D). GR50 and IC50 values of Azenosertib were determined by CellTiter-Glo (CTG) assay and the GR calculator.
HGSOC cells were assessed for growth rate inhibition (GR) in the presence of Azenosertib (relative to an untreated control). GR value is independent of cell division rate and was determined as described in Hafner et al. (Curr. Protoc. Chem. Biol. 9, 96-116 (2017)). HGSOC cells with high Cyclin E1 protein expression were amongst the most sensitive to Azenosertib. […] (FIG. 2). […] In Cyclin E1-low ovarian cancer cell lines, overexpression of Cyclin E1 by lentivirus increased sensitivity to Azenosertib.

[6] = system: OVCAR-3 cells (CCNE1-amplified, CN=14); assay: OVCAR-3 xenograft, tumor growth inhibition; type: in vivo, NOD/SCID mice; conditions: 80 mg/kg Azenosertib daily; after 28 days
Experimental: 6-8 weeks old female NOD/SCID mice were inoculated with OVCAR-3 cells (CCNE1-amplified, CN=14) into the right flank. Animals were randomized and treated with […] (20% HP-β-CD) or 80 mg/kg Azenosertib daily once the mean tumor volume reached 111 mm^3. Tumor volumes and body weight were measured twice weekly. […] Reduction in tumor growth was also observed in animals treated with 40 mg/kg Azenosertib daily, 60 mg/kg Azenosertib daily, 80 mg/kg Azenosertib daily. (FIGS. 8C and 8D).

[7] = system: OVCAR8 (non=CCNE1-amplified) CDX; assay: OVCAR8 CDX model, tumor growth inhibition; type: in vivo, mice; conditions: 80 mg/kg Azenosertib daily for 39 days
[8] = system: SKOV3 cells (non-CCNE1-amplified, wild-type CCNE1 CN=2); assay: SKOV3 cell line-derived xenograft (CDX), tumor growth inhibition; type: in vivo, mice; conditions: 80 mg/kg Azenosertib daily
Experimental: Mice were inoculated with SKOV3 cells (non-CCNE1-amplified, wild-type CCNE1 CN=2) on the right flank with the single cell suspension of 95% viable tumor cells (1×10^7) in 100 μL McCoy's 5a and Matrigel mixture (1:1 ratio) without serum for the tumor development. Animals were randomized and treated with vehicle (20% HP-β-CD) or 80 mg/kg Azenosertib daily for 21 days when the mean tumor volume reached 215 mm^3. Tumor growth inhibition (TGI) was calculated using the following equation TGI=(1−(Td−T0)/(Cd−C0))×100%. Td and Cd are the mean tumor volumes of the treated and control animals, and T0 and C0 are the mean tumor volumes of the treated and control animals at the start of the experiment. […] (FIGS. 6A and 6B).

[9] = system: HCC1806 human triple negative breast cancer cells (CCNE1-amplified, CN=7); assay: HCC1806 xenograft, tumor growth; type: in vivo, BALB/c nude mice; conditions: 80 mg/kg Azenosertib daily; after 28 days
Experimental: 1×10^6 HCC1806 human triple negative breast cancer cells (CCNE1-amplified, CN=7) were inoculated into the right flank of ten 6-8-week-old female BALB/c nude mice. Animals were randomized and treatment started when the mean tumor volume reached 155 mm^3. Animals were treated with vehicle (20% HP-β-CD) or 80 mg/kg Azenosertib daily and tumor volumes and body weight were measured twice weekly.

Molecule: CN1CCN(c2cc(C(=O)Nc3cc4cc(-c5cnn(C)c5)ccc4cn3)ccn2)CC1 [SM 08502, reference compound]
- response to prior line of therapy [1]: PD

Molecule: C=CCn1c(=O)c2cnc(Nc3ccc(N4CCN(C)CC4)cc3)nc2n1-c1ccc2c(n1)[C@@](O)(CC)CC2 [Azenosertib]
- Tumor Growth Inhibition [2]: 34%
- Tumor Growth Inhibition [3]: 68%
- durable cPR [4]: −71%
- tolerability of treatment [5]: well-tolerated
- effect on growth rate (GR) (HGSOC cells; COV362, JHOMI, OAW28, OVCAR3, CAOV3, and OVCAR4 cells): cytotoxic effect
- effect on growth rate (GR) (HGSOC cells; ES2 and TYK-nu cells): cytotoxic effect
- effect on growth rate (GR) (HGSOC cells; OV90 and Kuramochi cells): inhibitory effect
- GRmax (HGSOC cells; ovarian cancer cell lines overexpressing Cyclin E1 protein (Cyclin E1-high)): < −0.5
- reduced tumor growth TGI(80 mpk, Day 28) [6]: 88%
- average tumor growth inhibition TGI(80 mpk, Day 28) [7]: 52.8%
- average tumor growth inhibition TGI(80 mpk, Day 28) [8]: 51.5%
- reduced tumor growth vs vehicle [9]: 63.5%

Molecule: Avelumab: prior line of therapy of the subject [reference compound]
- response to prior line of therapy [1]: SD

Molecule: CC(=O)O[C@H]1C(=O)[C@@]2(C)[C@H]([C@H](OC(=O)c3ccccc3)[C@]3(O)C[C@H](OC(=O)[C@H](O)[C@@H](NC(=O)c4ccccc4)c4ccccc4)C(C)=C1C3(C)C)[C@]1(OC(C)=O)CO[C@@H]1C[C@@H]2O [Paclitaxel, paclitaxel, reference compound]
- Tumor Growth Inhibition [2]: 46%
- Tumor Growth Inhibition [3]: 74%

B1: ABBV-155 (conjugate, chains of the INN, looked up)
VH: EVQLQESGPGLVKPSETLSLTCAVTGYSITSGYSWHWIRQFPGNGLEWMGYIHSSGSTNYNPSLKSRISISRDTSKNQFFLKLSSVTAADTAVYYCAGYDDYFEYWGQGTTVTVSS
VL: DIQMTQSPSSLSASVGDRVTITCKASQNVGFNVAWYQQKPGKSPKALIYSASYRYSGVPSRFSGSGSGTDFTLTISSLQPEDFAEYFCQQYNWYPFTFGQGTKLEIK
modifications: clezutoclax payload
- response to prior line of therapy [1]: PD

B2: XMT1536 (conjugate, chains of the INN, looked up)
VH: QVQLVQSGAEVVKPGASVKMSCKASGYTFTGYNIHWVKQAPGQGLEWIGAIYPGNGDTSYKQKFRGRATLTADTSTSTVYMELSSLRSEDSAVYYCARGETARATFAYWGQGTLVTVSS
VL: DIQMTQSPSSLSASVGDRVTITCSASQDIGNFLNWYQQKPGKTVKVLIYYTSSLYSGVPSRFSGSGSGTDYTLTISSLQPEDFATYYCQQYSKLPLTFGQGTKLELK
modifications: rilsodotin (auristatin) payload
- response to prior line of therapy [1]: PR
